Measured values reported in patent US20170172994A1, “COMPOSITIONS AND METHODS FOR TREATING BACTERIAL INFECTIONS” (WOCKHARDT LIMITED, priority 2013, published 2017).
≈ marks a conversion by molar mass, not a printed value.

Columns and labels:
Pseudomonas PBP 3 = target: T1, Pseudomonas PBP 3 (Pseudomonas aeruginosa, UniProt G3XD46); assay: biochemical; format: binding
T1 construct: endogenous in cells
Procedure: The phrase “selective and high affinity PBP binder” refers to a PBP binder which binds to only one PBP with very high affinity. In general, the term “selective and high affinity PBP binder” also includes those binders where a substantial fraction of binder selectively binds to only one PBP with high affinity.
The reaction mixtures were then denatured with 20 μl each of SDS-denaturing solution at 100° C. for 3 min PBPs were separated through 10% SDS polyacrylamide gel electrophoresis (Bio-Rad Laboratories, Hercules, Calif.). The protein gels were rinsed in water immediately after electrophoresis.

Pseudomonas PBP 1A = target: T2, Pseudomonas PBP 1A (Pseudomonas aeruginosa, UniProt Q07806); assay: PBP binding assay (Bocillin FL competition); settings: Pseudomonas PBP 1A; read-out: IC50 (converted)
T2 construct: endogenous in cells
Procedure: (§1) The phrase “selective and high affinity PBP binder” refers to a PBP binder which binds to only one PBP with very high affinity. In general, the term “selective and high affinity PBP binder” also includes those binders where a substantial fraction of binder selectively binds to only one PBP with high affinity. […]. The term “IC50 value” of a compound refers to the concentration of the compound that reduces the binding of Bocillin-FL to PBPs by 50% as compared to when no compound was added to the reaction.
(§2) A compound of Formula (III) was prepared using the procedure disclosed in PCT International Application No. PCT/IB2012/054290 and was evaluated for its PBP binding affinity profile. […] The reaction mixtures were then denatured with 20 μl each of SDS-denaturing solution at 100° C. for 3 min PBPs were separated through 10% SDS polyacrylamide gel electrophoresis (Bio-Rad Laboratories, Hercules, Calif.). The protein gels were rinsed in water immediately after electrophoresis. […] […].

Pseudomonas PBP 5/6 = Pseudomonas PBP 5/6 (Pseudomonas aeruginosa, UniProt G3XD74); assay: PBP binding assay (Bocillin FL competition)
Procedure: as §1, §2

[1] = system: Acinetobacter baumannii NCTC 13304 producing carbapenem hydrolyzing Class D OXA enzyme (OXA 27); assay: Time kill study (viability count); format: cell-based; settings: Cefepime 8 μg/ml, Compound of Formula (III) 8 μg/ml, Imipenem 16 μg/ml
Procedure: (§3) The antibacterial effectiveness of various antibacterial agents in presence of a compound of Formula (III) was investigated and the results are detailed below. In a typical study, overnight cultures in Trypticase soya broth (TSB) were brought to log phase by 1 in 10 dilution in fresh cation adjusted Mueller Hinton Broth (MHB) and incubation for 2.5 hours at 35° C. in orbital shaker. Log phase cultures were diluted to desired inoculums in flasks with MHB, containing various drug concentrations. Flasks were incubated at 35° C. in orbital shaker with rotational speed of 125 rpm. Viability count was determined by 1 in 10 serial dilutions of samples in normal saline and surface spreading of 10 μl of dilutions in duplicate on Trypticase soya agar plates. Plates were incubated for 24 hours at 35° C. and colonies were enumerated to determine the colony forming units (CFU) per ml volume.

[2] = system: Pseudomonas aeruginosa NCTC 13437 producing carbapenem hydrolyzing MBL (VIM 10) & Class A (VEB1); assay: Time kill study (viability count); format: cell-based; settings: Cefepime 8 μg/ml, Compound of Formula (III) 8 μg/ml, Imipenem 16 μg/ml
Procedure: as §3

K. pneumoniae B88 [3] = assay: MIC determination; format: cell-based; settings: Klebsiella pneumoniae; K. pneumoniae B88 (NDM, SHV, TEM)
Procedure: (§4) In a typical procedure for determining MIC values, overnight grown bacterial cultures were diluted appropriately and inoculated on the agar media containing doubling concentrations of the test compounds. Observation for growth or no growth was performed after 16-20 hours of incubation at 35±2° C. in ambient air. The overall procedure was performed as per Clinical and Laboratory Standards Institute (CLSI) recommendations (Clinical and Laboratory Standards Institute (CLSI), Performance Standards for Antimicrobial Susceptibility Testing, 20th Informational Supplement, M 100-S20, Volume 30, No. 1, 2010).

P. mirabilis G 186 [4] = assay: MIC determination; format: cell-based; settings: Proteus mirabilis, G186; P. mirabilis G 186 (NDM, TEM)
Procedure: as §4

[5] = system: MDR Klebsiella pneumoniae B 88 producing NDM, SHV & TEM beta-lactamases; assay: Time kill study at MFC and MSC; format: cell-based; settings: for Bacterial count: Cefepime 8 mcg/ml (MFC), Compound of Formula (III) 0.12 mcg/ml (MSC), Imepenem 8 mcg/ml
Procedure: (§5) The synergistic killing effect of the combinations according to invention was studied by performing time kill studies. In a typical time kill study, the freshly grown cultures were diluted to the required cell density (initial starting inoculum) in Cation adjusted Muller Hinton broth medium (BD, USA). The antibacterial agents (either alone or in combination) at the required concentrations were added into the culture-containing medium. The samples were incubated under shaking condition (120 rpm) at 37° C. Enumeration of viable bacterial count was done every 2 hour by diluting in normal saline and plating on to the Tryptic Soya Agar plates (BD, USA). The plates were incubated for 24 hours to arrive at the viable bacterial count. The results are expressed in terms of Log CFU per ml. In general, the decrease of 1 Log CFU/ml, corresponds to 90% killing of bacteria. Similarly, 2 Log CFU/ml reductions indicates to 99% killing of bacteria and 3 Log CFU/ml reductions is equal to 99.9% killing of bacteria.

[6] = system: MDR P. mirabilis G 186 producing NDM & TEM β-lactamases; assay: Time kill study at MFC and MSC; format: cell-based; settings: for Bacterial count: Cefepime 8 mcg/ml (MFC), Compound of Formula (III) 0.25 mcg/ml (MSC), Imepenem 8 mcg/ml
Procedure: as §5

K. pneumoniae B88 [7] = assay: Minimum filamentation / spheroplasting concentration; settings: Klebsiella pneumoniae, B88
Description: (§6) The term “MSC” as used herein refers to minimum spheroplasting concentration, which is the minimum concentration of an antibacterial agent at which about 80% of bacterial cells covert into spheroplasts.
(§7) The term “MFC” as used herein refers to minimum filamentation concentration, which is the minimum concentration of an antibacterial agent at which about 80% of bacterial cells get elongated to form filament like structures.

P. mirabilis G 186 [8] = assay: as above; settings: Proteus mirabilis, G186
Description: as §6, §7

T1 sequence (G3XD46 whole entry): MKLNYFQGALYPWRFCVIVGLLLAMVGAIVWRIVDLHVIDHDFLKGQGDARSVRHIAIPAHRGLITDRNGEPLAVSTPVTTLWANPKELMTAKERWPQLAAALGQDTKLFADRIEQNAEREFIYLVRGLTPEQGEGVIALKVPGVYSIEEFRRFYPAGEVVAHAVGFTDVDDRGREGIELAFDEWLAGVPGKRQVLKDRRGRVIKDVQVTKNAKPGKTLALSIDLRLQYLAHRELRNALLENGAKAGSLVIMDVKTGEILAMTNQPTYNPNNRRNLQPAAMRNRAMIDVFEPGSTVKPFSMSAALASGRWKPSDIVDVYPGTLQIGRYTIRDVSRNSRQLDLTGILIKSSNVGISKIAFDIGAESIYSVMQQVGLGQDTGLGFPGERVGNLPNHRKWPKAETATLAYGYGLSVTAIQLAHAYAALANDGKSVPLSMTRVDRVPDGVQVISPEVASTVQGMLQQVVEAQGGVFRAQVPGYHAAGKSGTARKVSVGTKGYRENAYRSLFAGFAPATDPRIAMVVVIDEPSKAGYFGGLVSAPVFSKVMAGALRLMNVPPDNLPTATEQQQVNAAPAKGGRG
Chain of Pseudomonas PBP 5/6 (G3XD74 entry or part of it): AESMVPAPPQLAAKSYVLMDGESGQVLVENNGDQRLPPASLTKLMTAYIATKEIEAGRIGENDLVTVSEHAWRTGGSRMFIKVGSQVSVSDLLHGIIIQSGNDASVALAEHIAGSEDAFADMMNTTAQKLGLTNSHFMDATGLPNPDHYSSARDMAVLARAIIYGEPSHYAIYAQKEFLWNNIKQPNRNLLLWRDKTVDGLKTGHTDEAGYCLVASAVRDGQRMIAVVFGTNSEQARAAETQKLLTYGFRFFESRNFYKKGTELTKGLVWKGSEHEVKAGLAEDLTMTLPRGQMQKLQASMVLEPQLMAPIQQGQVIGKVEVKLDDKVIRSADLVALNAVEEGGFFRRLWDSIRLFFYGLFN
T2 sequence (Q07806 whole entry): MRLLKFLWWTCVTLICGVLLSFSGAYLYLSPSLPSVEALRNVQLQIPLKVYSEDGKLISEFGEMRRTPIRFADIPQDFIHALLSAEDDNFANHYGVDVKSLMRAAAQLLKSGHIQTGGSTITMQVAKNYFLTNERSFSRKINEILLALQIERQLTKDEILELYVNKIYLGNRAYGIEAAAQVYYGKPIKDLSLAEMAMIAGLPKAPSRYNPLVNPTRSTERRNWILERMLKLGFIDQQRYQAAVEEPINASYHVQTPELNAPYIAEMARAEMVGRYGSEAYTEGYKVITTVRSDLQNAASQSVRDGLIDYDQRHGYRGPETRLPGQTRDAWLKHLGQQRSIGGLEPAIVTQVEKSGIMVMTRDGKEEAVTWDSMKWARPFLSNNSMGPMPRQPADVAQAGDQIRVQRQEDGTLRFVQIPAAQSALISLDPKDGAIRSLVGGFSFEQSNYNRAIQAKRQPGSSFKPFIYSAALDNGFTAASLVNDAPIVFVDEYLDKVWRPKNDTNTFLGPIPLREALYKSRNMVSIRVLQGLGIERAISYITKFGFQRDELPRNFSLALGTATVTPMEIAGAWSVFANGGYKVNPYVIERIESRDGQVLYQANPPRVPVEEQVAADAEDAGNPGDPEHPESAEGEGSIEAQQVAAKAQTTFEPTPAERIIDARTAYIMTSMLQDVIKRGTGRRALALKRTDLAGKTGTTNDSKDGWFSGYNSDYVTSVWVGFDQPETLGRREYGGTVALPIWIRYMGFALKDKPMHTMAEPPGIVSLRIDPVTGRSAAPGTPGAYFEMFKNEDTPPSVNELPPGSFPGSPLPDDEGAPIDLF

CO/N=C(\C(=O)N[C@@H]1C(=O)N2C(C(=O)[O-])=C(C[N+]3(C)CCCC3)CS[C@H]12)c1csc(N)n1 [Cefepime]
IC50 (Pseudomonas PBP 3): 312 nM
IC50 (Pseudomonas PBP 1A): 250 nM
IC50 (Pseudomonas PBP 5/6): > 8320 nM
Bacterial count ([1]; 0 hour): 6.3 log (CFU/ml)
Bacterial count ([1]; 2 hours): 7.3 log (CFU/ml)
Bacterial count ([1]; 4 hours): 7.5 log (CFU/ml)
Bacterial count ([1]; 6 hours): 7.8 log (CFU/ml)
Bacterial count ([1]; 8 hours): 8.0 log (CFU/ml)
Bacterial count ([2]; 0 hour): 6.0 log (CFU/ml)
Bacterial count ([2]; 2 hours): 6.49 log (CFU/ml)
Bacterial count ([2]; 4 hours): 7.74 log (CFU/ml)
Bacterial count ([2]; 6 hours): 8.02 log (CFU/ml)
Bacterial count ([2]; 12 hours): 8.8 log (CFU/ml)
MIC (K. pneumoniae B88 [3]): > 64 µg/mL
MIC (P. mirabilis G 186 [4]): > 64 µg/mL
Bacterial count ([5]; 0 hour): 6.14 Log10 CFU/ml
Bacterial count ([5]; 2 hours): 6.65 Log10 CFU/ml
Bacterial count ([5]; 4 hours): 8.30 Log10 CFU/ml
Bacterial count ([5]; 6 hours): 9.11 Log10 CFU/ml
Bacterial count ([5]; 8 hours): 9.04 Log10 CFU/ml
Antibacterial activity (in words) ([5]; Klebsiella pneumoniae B 88, at MFC and MSC concentration, Table 13): did not exhibit antibacterial activity
Bacterial count ([6]; 0 hour): 6.58 Log10 CFU/ml
Bacterial count ([6]; 2 hours): 6.04 Log10 CFU/ml
Bacterial count ([6]; 4 hours): 7.93 Log10 CFU/ml
Bacterial count ([6]; 6 hours): 8.66 Log10 CFU/ml
Bacterial count ([6]; 8 hours): 8.85 Log10 CFU/ml
Antibacterial activity (in words) ([6]; P. mirabilis G 186, at MFC and MSC concentration, Table 14): did not exhibit antibacterial activity
MFC (K. pneumoniae B88 [7]): 8 µg/mL (≈ 16.6 µM)
MFC (P. mirabilis G 186 [8]): 8 µg/mL (≈ 16.6 µM)
